# US20240277861A1, “ANTI-HEPATITIS B VIRUS AGENT TARGETING HOST FACTOR LIPG” (PUROTECH BIO, INC., priority 2021, published 2024)
# Residues, ends and D or L forms follow the SMILES beside them.
# B1: LIPG (500 aa, MW: 56.8 kDa) (protein)
# chain: SPVPFGPEGRLEDKLHKPKATQTEVKPSVRFNLRTSKDPEHEGCYLSVGHSQPLEDCSFNMTAKTFFIIHGWTMSGIFENWLHKLVSALHTREKDANVVVVDWLPLAHQLYTDAVNNTRVVGHSIARMLDWLQEKDDFSLGNVHLIGYSLGAHVAGYAGNFVKGTVGRITGLDPAGPMFEGADIHKRLSPDDADFVDVLHTYTRSFGLSIGIQMPVGHIDIYPNGGDFQPGCGLNDVLGSIAYGTITEVVKCEHERAVHLFVDSLVNQDKPSFAFQCTDSNRFKKGICLSCRKNRCNSIGYNAKKMRNKRNSKMYLKTRAGMPFRVYHYQMKIHVFSYKNMGEIEPTFYVTLYGTNADSQTLPLEIVERIEQNATNTFLVYTEEDLGDLLKIQLTWEGASQSWYNLWKEFRSYLSQPRNPGRELNIRRIRVKSGETQRKLTFCTEDPENTSISPGRELWFRKCRDGWRMKNETSPTVELP
# Tests used:
# [1] = assay type: physicochemical
# From the text: Therefore, peptides designed by reducing the number of amino acid residues in these two peptides to 8 (LIPH4-23s and LIPH4-NTNBs) were next chemically synthesized.
# [2] = target: T1, full-length form of LIPG (500 amino acids) (Homo sapiens, UniProt Q9Y5X9); experiment: Pull-down assay of LIPH4 peptides against full-length LIPG; assay type: binding; conditions: culture supernatant of transfected 293T cells, compared with no bait
# T1 construct: A pull-down assay was performed on the full-length form of LIPG (500 amino acids); made in house
# T1 sequence (Q9Y5X9 21-500): B1 chain
# Protocol: Human embryonic kidney 293T cells were cultured in DMEM (1.0 g/l glucose) with L-Gln and Sodium Pyruvate, liquid (Nacalai) supplemented with 10% FCS ([…]). Plating was performed in a 1:2 ratio on 6 cm dishes 24 hours before transfection. Lipofectamine 2000 in a volume of 20 μl was added to 500 μl of Opti-MEM 1 and allowed to stand for 5 minutes at room temperature, and the resulting mixture was gently added to a 6 cm dish containing a mixture of 500 μl of Opti-MEM 1 and 8 μg of a plasmid DNA. The resulting mixture was allowed to stand for 20 minutes at room temperature, and then added to a 6 cm dish containing 293T cells, and the cells were cultured at 37° C. in 5% CO2 for 4 to 6 day.
# Resin (Streptavidin MagneSphere Paramagnetic Particles) (Promega) was washed using the MagneSphere Technology Magnetic Separation Stand (tweleve-position). The resin in a volume of 40 μl was added to each 1.5 ml tube, and after removal of the solution, washed three times with 1 ml of PBS. The resin was transferred to new tubes and mixed with 0.5 nmol (109 μl) of LIPG-BioFLAGHis or with 109 μl of PBS as a no bait control, and the resulting mixtures were agitated at 4° C. for 1 hour by rotation on a mini-disk rotor (BIO CRAFT) to allow binding. After removal of the solution, the resin was washed three times with 1 ml of TBST (containing 0.05% Tween 20). The resin was transferred to new tubes, blocked with 1 ml of ELISA BSA buffer (TBS, 0.05%, Tween 20, 1% BSA. Nacalai Tesque, Inc.) at 4° C. for 1 hour, and then washed three times with 1 ml of ELISA BSA buffer. The resin was transferred to new tubes, and 1000 μl of the culture supernatant containing expressed KIgk-LIPH4 was mixed with […] of the resin treated with LIPG-BioFLAGHis or without the bait, and the resulting mixtures were agitated at 4° C. for 1 hour and 30 minutes by rotation on a mini-disk rotor (BIO CRAFT) to allow binding. After removal of the solution, the resin was washed three times with […] of TBST (Tween 20, 0.1%), and the recovered resin was used for Western blotting.
# Each resin was mixed with water and LDS sample buffer (4×), 0.2 mM DTT, heated at 70° C. for 10 minutes, and then subjected to SDS-PAGE. SDS-PAGE was performed using 4-12% Bis-Tris gel and NuPAGE MES-SDS electrophoresis buffer (Invitrogen) at 200 V and 400 mA for 35 minutes. After electrophoresis, transfer was performed using Mini Format, 0.2-μm PVDF, Single-application (BIO-RAD) Trans-Blot Turbo. The membrane was blocked with a Blocking One Buffer: TBST (1:9) solution and reacted with an anti-Flag-HRP (Sigma: A8592) diluted 2:3000 in a Blocking One Buffer: TBST (1:9) solution. Detection was performed using ECL (Enhanced ChemiLuminescence) on a ChemiDoc (BIO-RAD).
# A pull-down assay was performed on the full-length form of LIPG (500 amino acids) with LIPH4 peptides (FIG. 16).
# HBV [3] = experiment: Anti-HBV activities of LIPG-binding peptides in HepG2-NTCP-C4 cells (plasmid transfection); assay type: cell-based
# Protocol: (§1) SMI TEST™ M EX-R&D (Medical & Biological Laboratories) was used to extract DNA from the samples. The extracted DNA was used as a template for quantitative PCR of HBV-DNA. For cccDNA detection, the extracted DNA was treated with T5 exonuclease (New England Biolabs), and the resulting DNA was used as a template for quantitative PCR. The T5 exonuclease treatment was performed at 37° C. for 30 minutes, and the DNase was later inactivated by heating at 80° C. for 15 minutes. The following primer set was used for detection.
# Cells were infected with HBV derived from HepG2.2.15 at 20,000 genome equivalents/cell, and plasmids carrying different peptides were transfected individually into the cells 12 to 15 days post infection using Lipofectamine 3000. Samples were collected 3 to 5 days after transfection for evaluation of HBV-DNA, cccDNA, pgRNA, and the like.
# For the clones positive in the pull-down experiment against full-length LIPG, the anti-HBV activities of the LIPG peptides were evaluated in HepG2-NTCP-C4 cells (FIG. 17). A secretion signal is added to a plasmid carrying each peptide. Therefore, the peptides are expected to be secreted from cells transfected with the plasmids and to bind to LIPG in the extracellular environment. […] Moreover, the copy number of cccDNA was reduced by almost all the clones.
# HBV [4] = experiment: Anti-HBV activities of LIPG-binding peptides in PXB cells; assay type: cell-based; conditions: HBV-infected PXB cells
# Protocol: An infection source medium was prepared by adding the HBV-infected chimeric mouse serum (PhoenixBio), DMSO, and a PEG 8000 solution to the PXB cell culture medium (PhoenixBio) at final concentrations of 5 genome equivalents/cell, 2%, and 4%, respectively. Various synthesized peptides were diluted to different concentrations in this medium, and the resulting media were added individually to PXB cells (PhoenixBio). After the cells were left to stand in a 5% CO2 incubator at 37° C. for 20 to 28 hours, the medium was removed and the wells were washed once with PBS(−). DMSO and one of the various synthesized peptides were added to the PXB cell culture medium at a final concentration of 2% and different concentrations, respectively, and the resulting media were added individually to the PXB cells to perform medium exchange. This medium exchange was performed at 1, 5, and 9 days post infection and samples were collected at 14 days post infection.
# as §1
# PXB cells, fresh human liver cells isolated from PXB mice (human hepatocyte chimeric mice), are human liver cells that maintain human liver functions at high levels and allow persistent infection with hepatitis B virus (HBV). Therefore, PXB cells were used to evaluate the anti-HBV activities of LIPG-binding peptides. LIPG-binding peptides were chemically synthesized because they were added extracellularly (Eurofins Genomics K.K.). Clones that had shown excellent results in the studies of Examples 10 and 1 (KIgk-LIPH4-23, KIgk-LIPH4-74, KIgk-LIPH4-15, KIgk-L1l 14-2. KIgk-LIPH14-14. KIgk-LIPH4-87) were selected for chemical synthesis of the peptides. […] Therefore, LIPH4-NTNA and LIPH4-NTNB, which share a common sequence with netrins and consist of 16 amino acids, were also chemically synthesized. The chemically synthesized peptides were dissolved in DMSO for use in HBV assays in PXB cells.
# Next, the anti-HBV activity of full-length Netrin-1 was examined in PXB cells. A full-length human recombinant Netrin-1 protein consisting of 604 amino acid residues (molecular weight: 67.5 kDa, SEQ ID NO: 28) was purchased from R&D Systems. United States. A shRNA with the sequence […]ctcgagc[…] TTTTTTG (single underline: terminal sequences for cloning, lowercase letters: hairpin loop sequence) (SEQ ID NO: 64) was used to knock down the Netrin-1 gene.
# [5] = target: T2, N4BP1 (NEDD4 Binding Protein 1)
# T2 chain: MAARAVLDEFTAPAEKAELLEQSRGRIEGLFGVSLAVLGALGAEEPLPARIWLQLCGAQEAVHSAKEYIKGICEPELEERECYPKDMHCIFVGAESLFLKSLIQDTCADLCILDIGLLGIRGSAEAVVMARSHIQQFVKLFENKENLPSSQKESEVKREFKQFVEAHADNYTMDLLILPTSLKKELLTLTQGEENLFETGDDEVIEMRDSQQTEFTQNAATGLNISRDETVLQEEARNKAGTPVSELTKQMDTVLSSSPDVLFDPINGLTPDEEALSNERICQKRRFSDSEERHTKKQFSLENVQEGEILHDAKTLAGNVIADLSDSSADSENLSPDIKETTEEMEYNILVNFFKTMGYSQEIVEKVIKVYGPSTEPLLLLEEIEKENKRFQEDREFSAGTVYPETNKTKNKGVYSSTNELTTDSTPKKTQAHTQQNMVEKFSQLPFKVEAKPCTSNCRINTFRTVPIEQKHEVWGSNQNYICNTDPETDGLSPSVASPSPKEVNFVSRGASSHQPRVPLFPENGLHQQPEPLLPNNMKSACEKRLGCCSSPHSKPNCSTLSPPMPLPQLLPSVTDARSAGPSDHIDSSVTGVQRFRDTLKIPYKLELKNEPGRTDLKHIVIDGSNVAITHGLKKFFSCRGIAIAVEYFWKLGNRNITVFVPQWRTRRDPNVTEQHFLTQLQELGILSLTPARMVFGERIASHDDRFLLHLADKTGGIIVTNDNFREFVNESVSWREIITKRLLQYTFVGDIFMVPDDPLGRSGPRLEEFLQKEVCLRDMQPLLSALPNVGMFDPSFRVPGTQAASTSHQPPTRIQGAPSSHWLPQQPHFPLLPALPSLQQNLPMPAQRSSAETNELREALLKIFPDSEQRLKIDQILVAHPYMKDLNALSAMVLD
molecule,measurement,setting,value
C[C@H](NC(=O)[C@@H](NC(=O)[C@H](CC(N)=O)NC(=O)[C@H](Cc1c[nH]cn1)NC(=O)[C@H](CCCNC(=N)N)NC(=O)[C@H](CS)NC(=O)[C@@H](N)CC(N)=O)[C@@H](C)O)C(=O)NCC(=O)O [LIPH4-NTNBs] (H-NCRHNTAG-OH; N-terminus and C-terminus assumed),solubility in PBS,[1],soluble in PBS (water soluble)
LNCRDNTRPVMSAMTC [KIgk-LIPH4-23],binding to LIPG in pull-down assay,[2],positive
same,copy number of HBV-DNA,HBV [3]; vs control,reduced the copy number of HBV-DNA to near zero
LNCRDNTRPVMSAMTC (LIPH4-23),anti-HBV activity (effect to reduce HBV DNA and cccDNA copy numbers),HBV [4],high anti-HBV activity
same,anti-HBV activity,HBV [3],remarkable anti-HBV activity
CC(C)C[C@H](N)C(=O)N[C@@H](CC(N)=O)C(=O)N[C@@H](CS)C(=O)N[C@@H](CCCNC(=N)N)C(=O)N[C@@H](CC(=O)O)C(=O)N[C@@H](CC(N)=O)C(=O)N[C@H](C(=O)N[C@@H](CCCNC(=N)N)C(=O)O)[C@@H](C)O [LIPH4-23s] (H-LNCRDNTR-OH; N-terminus and C-terminus assumed),solubility in PBS,[1],soluble in PBS (water soluble)
B1,"degradation of a 1203-base HBV L protein RNA by N4BP1 (RNase activity), agarose gel",[5],the degradation of the RNA was suppressed in the presence of LIPG by binding of LIPG to N4BP1
